The values below are quoted from earlier work in article PMC11187573, “Identification of SARS-CoV-2 Mpro inhibitors through deep reinforcement learning for de novo drug design and computational chemistry approaches” (RSC Medicinal Chemistry, 2024).

pIC50: −log10 of the molar value. Read-outs that look alike come from different tables or passages of the source.

For the data set, the system named is Mpro. Particulars: ML dataset, cited from earlier work.
The mark [1] stands for this setting: Origin COVID_Moonshot, ref COVID Moonshot.

With `COCc1ccc(N(C(=O)c2c[nH]cn2)C(C(=O)NCCc2cccc(F)c2)c2cccnc2)cc1` (stereo not drawn) [BRU-THA-92256091-23], the pIC50 (in general, the negative decadic logarithm of the IC50, by convention in mol/L) under setting [1] was 4.20.

For `O=C(NCCc1cccc(F)c1)C(c1cccnc1)N(C(=O)c1c[nH]cn1)c1ccc(C2COC2)cc1` (stereo not drawn) [BRU-THA-92256091-80], under setting [1], the pIC50 is 4.64.

As to `O=C(NCCc1cccc(F)c1)C(c1cccnc1)N(C(=O)c1c[nH]cn1)c1ccc(Cn2cccn2)cc1` (stereo not drawn) [BRU-THA-92256091-86], the negative logarithm of the IC50 (pIC50) under setting [1] is 4.45.

Turning to `C[C@H]1COc2c(N3CCN(C)CC3)c(F)cc3c(=O)c(C(=O)O)cn1c23` [CHEMBL33], the negative-log IC50 (pIC50) (Origin ChEMBL, ref ChEMBL) is 5.12.

As to `O=C(O)c1ccc(S(=O)(=O)c2cc(Br)c(O)c(Br)c2)cc1` [CHEMBL212240], the negative logarithm of the IC50 (pIC50) (Origin ChEMBL, ref ChEMBL) is 4.80.

With `Nc1ncc(S(=O)(=O)c2ccc(Cl)cc2)c(N)n1` [CHEMBL213581], the negative logarithm of the IC50 (pIC50) (Origin ChEMBL, ref ChEMBL) is 5.22.

For the molecule `O=S(=O)(Cc1[nH]c(-c2ccc(Cl)s2)c[s+]1)c1cccs1` [CHEMBL215733], the negative-log IC50 (pIC50) (Origin ChEMBL, ref ChEMBL) was 4.74.

As to `O=C(Oc1cncc(Br)c1)c1ccco1` [CHEMBL222234, O=C(c1ccco1)Oc1cc(Br)cnc1, reference compound], the negative-log IC50 (pIC50) (Origin ChEMBL, ref ChEMBL) is 7.30.

Take `O=C(Oc1cncc(Cl)c1)c1cscn1` [CHEMBL222628, O=C(c1cscn1)Oc1cc(Cl)cnc1, reference compound]: the negative-log IC50 (pIC50) (Origin ChEMBL, ref ChEMBL) was 6.57.

For the molecule `O=C(Oc1cncc(Cl)c1)c1ccc(-c2ccc(Cl)cc2)o1` [CHEMBL222769, O=C(c1ccc(-c(cc2)ccc2Cl)o1)Oc1cc(Cl)cnc1, reference compound], under “Origin ChEMBL, ref ChEMBL”, the pIC50 is 7.20.

In the case of `O=C(Oc1cncc(Cl)c1)c1ccco1` [CHEMBL222840, O=C(c1ccco1)Oc1cc(Cl)cnc1, reference compound], the pIC50 (Origin ChEMBL, ref ChEMBL) is 7.22.

For the molecule `O=C(Oc1cncc(Cl)c1)c1cc2ccccc2s1` [CHEMBL222893, O=C(c1cc(cccc2)c2s1)Oc1cc(Cl)cnc1, reference compound], the pIC50 (Origin ChEMBL, ref ChEMBL) was 7.02.

`O=C(Oc1cncc(Cl)c1)c1cc2ccccc2[nH]1` [CHEMBL225515, O=C(c1cc(cccc2)c2[nH]1)Oc1cc(Cl)cnc1, reference compound]: for the setting “Origin ChEMBL, ref ChEMBL”, the pIC50 is 7.19.

As to `Cn1sc(=O)n(Cc2ccccc2)c1=O` [CHEMBL284861, CN(C(N1Cc2ccccc2)=O)SC1=O, reference compound], the negative logarithm of the IC50 (pIC50) (Origin ChEMBL, ref ChEMBL) was 6.85.

On to `Cc1nn(C)c(NCc2ccc(-c3cccs3)s2)c1[N+](=O)[O-]` [CHEMBL375130], for which, under “Origin ChEMBL, ref ChEMBL”, the pIC50 was 4.70.

Consider `CSc1[nH]nc(NC(=O)c2cccs2)c1S(=O)(=O)c1ccccc1` [CHEMBL378700], for which the negative-log IC50 (pIC50) (Origin ChEMBL, ref ChEMBL) was 4.82.

As to `O=[N+]([O-])c1cc(C(F)(F)F)ccc1S(=O)(=O)c1ccc(Cl)cc1` [CHEMBL380403], where the note is “Origin ChEMBL, ref ChEMBL”, the negative logarithm of the IC50 (pIC50) is 4.92.

Consider `O=C(Oc1cncc(Cl)c1)c1cc2ccccc2o1` [CHEMBL426898, O=C(c1cc(cccc2)c2o1)Oc1cc(Cl)cnc1, reference compound], for which, under “Origin ChEMBL, ref ChEMBL”, the negative logarithm of the IC50 (pIC50) is 6.77.

`Cc1noc(NC(=O)c2ccc(-c3cc(C(F)(F)F)nn3C)s2)c1[N+](=O)[O-]` [CHEMBL427404, Cc1noc(NC(c2ccc(-c3cc(C(F)(F)F)nn3C)s2)=O)c1[N+]([O-])=O, reference compound]: the negative-log IC50 (pIC50) (Origin ChEMBL, ref ChEMBL) was 5.30.

Turning to `Nc1ccc2cc3ccc(N)cc3nc2c1` [CHEMBL465704, CHEMBL55400], for the setting “Origin ChEMBL, ref ChEMBL”, the negative-log IC50 (pIC50) is 6.23.

Regarding `CC[C@H](CO)Nc1nc(NCc2ccc(-c3ccccn3)cc2)c2ncn(C(C)C)c2n1` [CHEMBL518800, CC[C@H](CO)Nc1nc(NCc(cc2)ccc2-c2ncccc2)c2ncn(C(C)C)c2n1, reference compound], the pIC50 (Origin ChEMBL, ref ChEMBL) is 6.08.

Turning to `C/N=c1/nc(-c2ccccc2)n(-c2ccccc2)s1` [CHEMBL1188627, C/N=C(/N=C1c2ccccc2)\SN1c1ccccc1, reference compound], the pIC50 (Origin ChEMBL, ref ChEMBL) was 6.01.

Take `Cc1ccc(C)c(-n2sc3cc(F)ccc3c2=O)c1` [CHEMBL1725120, Cc1cc(N2Sc(cc(cc3)F)c3C2=O)c(C)cc1, reference compound]: the pIC50 (Origin ChEMBL, ref ChEMBL) is 7.70.

For the molecule `CCOC(=O)Cc1ccc(-c2ccccc2)cc1` [CHEMBL1886408, CCOC(Cc(cc1)ccc1-c1ccccc1)=O, reference compound], the negative logarithm of the IC50 (pIC50) (Origin ChEMBL, ref ChEMBL) is 6.70.
